Test results as given in patent US20240252454A1, “COMPOSITION COMPRISING AN INHIBITOR OF MITOCHONDRIAL TRANSCRIPTION” (LEAD DISCOVERY CENTER GMBH, priority 2021, published 2024).

Assays:
Test in all cases: SRB assay, IMT combined with inhibitor
Assay type in all cases: cell-based
[1] = tested on: A375; conditions: A375 (skin); concentration series of the labelled inhibitor + fixed concentration of IMT (3S)-1-[(2R)-2-[4-(2-chloro-4-fluoro-phenyl)-2-oxo-chromen-7-yl]oxypropanoyl]piperidine-3-carboxylic acid (Table 3: 40 nM, 120 h); negative=synergistic, positive=antagonistic
Summary of the method: (§1)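 Fixed 40 nM (3S)-1-[(2R)-2-[4-(2-chloro-4-fluoro-phenyl)-2-oxo-chromen-7-yl]oxypropanoyl]piperidine-3-carboxylic acid was co-dosed with serially diluted MAPK SOC inhibitors for 120 h. Growth read by SRB; 5 mM glucose, at least duplicate independent runs.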

[2] = tested on: BXPC3; conditions: BXPC3 (pancreas); concentration series of the labelled inhibitor + fixed concentration of IMT (3S)-1-[(2R)-2-[4-(2-chloro-4-fluoro-phenyl)-2-oxo-chromen-7-yl]oxypropanoyl]piperidine-3-carboxylic acid (Table 3: 40 nM, 120 h); negative=synergistic, positive=antagonistic
Summary of the method: as §1

[3] = tested on: DU145; conditions: DU145 (prostate); concentration series of the labelled inhibitor + fixed concentration of IMT (3S)-1-[(2R)-2-[4-(2-chloro-4-fluoro-phenyl)-2-oxo-chromen-7-yl]oxypropanoyl]piperidine-3-carboxylic acid (Table 3: 40 nM, 120 h); negative=synergistic, positive=antagonistic
Summary of the method: as §1

[4] = tested on: GRANTA-519; conditions: GRANTA-519 (hematological); concentration series of the labelled inhibitor + fixed concentration of IMT (3S)-1-[(2R)-2-[4-(2-chloro-4-fluoro-phenyl)-2-oxo-chromen-7-yl]oxypropanoyl]piperidine-3-carboxylic acid (Table 3: 40 nM, 120 h); negative=synergistic, positive=antagonistic
Summary of the method: as §1

[5] = tested on: HCT116; conditions: HCT116 (colon); concentration series of the labelled inhibitor + fixed concentration of IMT (3S)-1-[(2R)-2-[4-(2-chloro-4-fluoro-phenyl)-2-oxo-chromen-7-yl]oxypropanoyl]piperidine-3-carboxylic acid (Table 3: 40 nM, 120 h); negative=synergistic, positive=antagonistic
Summary of the method: as §1

[6] = tested on: HELA; conditions: HELA (cervix); concentration series of the labelled inhibitor + fixed concentration of IMT (3S)-1-[(2R)-2-[4-(2-chloro-4-fluoro-phenyl)-2-oxo-chromen-7-yl]oxypropanoyl]piperidine-3-carboxylic acid (Table 3: 40 nM, 120 h); negative=synergistic, positive=antagonistic
Summary of the method: as §1

[7] = tested on: HEPG2; conditions: HEPG2 (liver); concentration series of the labelled inhibitor + fixed concentration of IMT (3S)-1-[(2R)-2-[4-(2-chloro-4-fluoro-phenyl)-2-oxo-chromen-7-yl]oxypropanoyl]piperidine-3-carboxylic acid (Table 3: 40 nM, 120 h); negative=synergistic, positive=antagonistic
Summary of the method: as §1

[8] = tested on: HT29; conditions: HT29 (colon); concentration series of the labelled inhibitor + fixed concentration of IMT (3S)-1-[(2R)-2-[4-(2-chloro-4-fluoro-phenyl)-2-oxo-chromen-7-yl]oxypropanoyl]piperidine-3-carboxylic acid (Table 3: 40 nM, 120 h); negative=synergistic, positive=antagonistic
Summary of the method: as §1

[9] = tested on: KASUMI-1; conditions: KASUMI-1 (hematological); concentration series of the labelled inhibitor + fixed concentration of IMT (3S)-1-[(2R)-2-[4-(2-chloro-4-fluoro-phenyl)-2-oxo-chromen-7-yl]oxypropanoyl]piperidine-3-carboxylic acid (Table 3: 40 nM, 120 h); negative=synergistic, positive=antagonistic
Summary of the method: as §1

[10] = tested on: LOVO; conditions: LOVO (colon); concentration series of the labelled inhibitor + fixed concentration of IMT (3S)-1-[(2R)-2-[4-(2-chloro-4-fluoro-phenyl)-2-oxo-chromen-7-yl]oxypropanoyl]piperidine-3-carboxylic acid (Table 3: 40 nM, 120 h); negative=synergistic, positive=antagonistic
Summary of the method: as §1

[11] = tested on: MIAPACA2; conditions: MIAPACA2 (pancreas); concentration series of the labelled inhibitor + fixed concentration of IMT (3S)-1-[(2R)-2-[4-(2-chloro-4-fluoro-phenyl)-2-oxo-chromen-7-yl]oxypropanoyl]piperidine-3-carboxylic acid (Table 3: 40 nM, 120 h); negative=synergistic, positive=antagonistic
Summary of the method: as §1

[12] = tested on: SKMEL5; conditions: SKMEL5 (skin); concentration series of the labelled inhibitor + fixed concentration of IMT (3S)-1-[(2R)-2-[4-(2-chloro-4-fluoro-phenyl)-2-oxo-chromen-7-yl]oxypropanoyl]piperidine-3-carboxylic acid (Table 3: 40 nM, 120 h); negative=synergistic, positive=antagonistic
Summary of the method: as §1

[13] = tested on: SW620; conditions: SW620 (colon); concentration series of the labelled inhibitor + fixed concentration of IMT (3S)-1-[(2R)-2-[4-(2-chloro-4-fluoro-phenyl)-2-oxo-chromen-7-yl]oxypropanoyl]piperidine-3-carboxylic acid (Table 3: 40 nM, 120 h); negative=synergistic, positive=antagonistic
Summary of the method: as §1

[14] = tested on: U87MG; conditions: U87MG (brain); concentration series of the labelled inhibitor + fixed concentration of IMT (3S)-1-[(2R)-2-[4-(2-chloro-4-fluoro-phenyl)-2-oxo-chromen-7-yl]oxypropanoyl]piperidine-3-carboxylic acid (Table 3: 40 nM, 120 h); negative=synergistic, positive=antagonistic
Summary of the method: as §1

## C[C@H](Nc1ncnc2nc[nH]c12)c1cc2cccc(Cl)c2c(=O)n1-c1ccccc1 [Duvelisib]
[1]
  difference between the calculated combinatorial index (BLISS) and the observed combinatorial effect: −0.0153
[2]
  difference between the calculated combinatorial index (BLISS) and the observed combinatorial effect: −0.0109
[3]
  difference between the calculated combinatorial index (BLISS) and the observed combinatorial effect: 0.0362
[4]
  difference between the calculated combinatorial index (BLISS) and the observed combinatorial effect: 0.0770
[5]
  difference between the calculated combinatorial index (BLISS) and the observed combinatorial effect: −0.0213
[6]
  difference between the calculated combinatorial index (BLISS) and the observed combinatorial effect: −0.0666
[7]
  difference between the calculated combinatorial index (BLISS) and the observed combinatorial effect: −0.0318
[8]
  difference between the calculated combinatorial index (BLISS) and the observed combinatorial effect: 0.0216
[9]
  difference between the calculated combinatorial index (BLISS) and the observed combinatorial effect: −0.0237
[10]
  difference between the calculated combinatorial index (BLISS) and the observed combinatorial effect: −0.0219
[11]
  difference between the calculated combinatorial index (BLISS) and the observed combinatorial effect: −0.0183
[12]
  difference between the calculated combinatorial index (BLISS) and the observed combinatorial effect: −0.1083
[13]
  difference between the calculated combinatorial index (BLISS) and the observed combinatorial effect: −0.0623
[14]
  difference between the calculated combinatorial index (BLISS) and the observed combinatorial effect: 0.0433

## CS(=O)(=O)N1CCN(Cc2cc3nc(-c4cccc5[nH]ncc45)nc(N4CCOCC4)c3s2)CC1 [GDC-0941, 2-(1H-Indazol-4-yl)-6-[[4-(methylsulfonyl)-1-piperazinyl]methyl]-4-(4-morpholinyl)thieno[3,2-d]pyrimidine]
[1]
  difference between the calculated combinatorial index (BLISS) and the observed combinatorial effect: −0.0654
[2]
  difference between the calculated combinatorial index (BLISS) and the observed combinatorial effect: 0.0704
[3]
  difference between the calculated combinatorial index (BLISS) and the observed combinatorial effect: 0.0436
[4]
  difference between the calculated combinatorial index (BLISS) and the observed combinatorial effect: 0.0647
[5]
  difference between the calculated combinatorial index (BLISS) and the observed combinatorial effect: −0.0464
[6]
  difference between the calculated combinatorial index (BLISS) and the observed combinatorial effect: −0.0531
[7]
  difference between the calculated combinatorial index (BLISS) and the observed combinatorial effect: −0.0006
[8]
  difference between the calculated combinatorial index (BLISS) and the observed combinatorial effect: 0.1027
[9]
  difference between the calculated combinatorial index (BLISS) and the observed combinatorial effect: 0.0051
[10]
  difference between the calculated combinatorial index (BLISS) and the observed combinatorial effect: −0.0539
[11]
  difference between the calculated combinatorial index (BLISS) and the observed combinatorial effect: 0.0516
[12]
  difference between the calculated combinatorial index (BLISS) and the observed combinatorial effect: −0.0915
[13]
  difference between the calculated combinatorial index (BLISS) and the observed combinatorial effect: 0.0303
[14]
  difference between the calculated combinatorial index (BLISS) and the observed combinatorial effect: 0.1078

## O=C(NOC[C@H](O)CO)c1ccc(F)c(F)c1Nc1ccc(I)cc1F [PD 0325901, (R)—N-(2,3-dihydroxypropoxy)-3,4-difluoro-2-((2-fluoro-4-iodophenyl)amino)benzamide]
[1]
  difference between the calculated combinatorial index (BLISS) and the observed combinatorial effect: 0.0418
[2]
  difference between the calculated combinatorial index (BLISS) and the observed combinatorial effect: 0.0495
[3]
  difference between the calculated combinatorial index (BLISS) and the observed combinatorial effect: −0.0558
[4]
  difference between the calculated combinatorial index (BLISS) and the observed combinatorial effect: 0.0420
[5]
  difference between the calculated combinatorial index (BLISS) and the observed combinatorial effect: −0.0042
[6]
  difference between the calculated combinatorial index (BLISS) and the observed combinatorial effect: −0.2549
[7]
  difference between the calculated combinatorial index (BLISS) and the observed combinatorial effect: 0.0334
[8]
  difference between the calculated combinatorial index (BLISS) and the observed combinatorial effect: 0.0786
[9]
  difference between the calculated combinatorial index (BLISS) and the observed combinatorial effect: −0.0286
[10]
  difference between the calculated combinatorial index (BLISS) and the observed combinatorial effect: −0.0229
[11]
  difference between the calculated combinatorial index (BLISS) and the observed combinatorial effect: 0.0500
[12]
  difference between the calculated combinatorial index (BLISS) and the observed combinatorial effect: 0.0095
[13]
  difference between the calculated combinatorial index (BLISS) and the observed combinatorial effect: 0.0316
[14]
  difference between the calculated combinatorial index (BLISS) and the observed combinatorial effect: 0.0604

## Cn1cnc2c(F)c(Nc3ccc(Br)cc3Cl)c(C(=O)NOCCO)cc21 [Selumetinib]
[1]
  difference between the calculated combinatorial index (BLISS) and the observed combinatorial effect: 0.0423
[2]
  difference between the calculated combinatorial index (BLISS) and the observed combinatorial effect: −0.0219
[3]
  difference between the calculated combinatorial index (BLISS) and the observed combinatorial effect: 0.0383
[4]
  difference between the calculated combinatorial index (BLISS) and the observed combinatorial effect: 0.0050
[5]
  difference between the calculated combinatorial index (BLISS) and the observed combinatorial effect: −0.0774
[6]
  difference between the calculated combinatorial index (BLISS) and the observed combinatorial effect: 0.0054
[7]
  difference between the calculated combinatorial index (BLISS) and the observed combinatorial effect: 0.0032
[8]
  difference between the calculated combinatorial index (BLISS) and the observed combinatorial effect: 0.0236
[9]
  difference between the calculated combinatorial index (BLISS) and the observed combinatorial effect: −0.0114
[10]
  difference between the calculated combinatorial index (BLISS) and the observed combinatorial effect: −0.0877
[11]
  difference between the calculated combinatorial index (BLISS) and the observed combinatorial effect: −0.0734
[12]
  difference between the calculated combinatorial index (BLISS) and the observed combinatorial effect: −0.0968
[13]
  difference between the calculated combinatorial index (BLISS) and the observed combinatorial effect: −0.0547
[14]
  difference between the calculated combinatorial index (BLISS) and the observed combinatorial effect: 0.0486

## CC(=O)Nc1cccc(-n2c(=O)n(C3CC3)c(=O)c3c(Nc4ccc(I)cc4F)n(C)c(=O)c(C)c32)c1 [Trametinib]
[1]
  difference between the calculated combinatorial index (BLISS) and the observed combinatorial effect: 0.0510
[2]
  difference between the calculated combinatorial index (BLISS) and the observed combinatorial effect: 0.0889
[3]
  difference between the calculated combinatorial index (BLISS) and the observed combinatorial effect: 0.0287
[4]
  difference between the calculated combinatorial index (BLISS) and the observed combinatorial effect: −0.0185
[5]
  difference between the calculated combinatorial index (BLISS) and the observed combinatorial effect: −0.0027
[6]
  difference between the calculated combinatorial index (BLISS) and the observed combinatorial effect: −0.0064
[7]
  difference between the calculated combinatorial index (BLISS) and the observed combinatorial effect: 0.0351
[8]
  difference between the calculated combinatorial index (BLISS) and the observed combinatorial effect: 0.0338
[9]
  difference between the calculated combinatorial index (BLISS) and the observed combinatorial effect: −0.0377
[10]
  difference between the calculated combinatorial index (BLISS) and the observed combinatorial effect: −0.0287
[11]
  difference between the calculated combinatorial index (BLISS) and the observed combinatorial effect: 0.1602
[12]
  difference between the calculated combinatorial index (BLISS) and the observed combinatorial effect: 0.0072
[13]
  difference between the calculated combinatorial index (BLISS) and the observed combinatorial effect: 0.0028
[14]
  difference between the calculated combinatorial index (BLISS) and the observed combinatorial effect: 0.0578
